Laboratory results as given in patent US6166049A, “Use of an antagonist of PPARα and PPARγ for the treatment of syndrome X” (SmithKline Beecham P.L.C., priority 1996, dated 2000).

Tests used:
[1] = test system: C57 Bl/KsJ db/db mouse; test: Serum lipids in the genetically diabetic C57 Bl/KsJ db/db mouse; type: in vivo; conditions: 0.3 umol/kg body wt, dietary admixture, after 14 days, *** p < 0.001, mean ± SD
Experimental: (§1) 2) Determination of Compound Efficacy on Blood Glucose and Plasma Lipids in the C57 Bl/KsJ db/db Mouse
(§2) This is paralleled by glycosuria and polyuria with a compensatory increase in water intake. Circulating serum triglycerides and free fatty acids are also elevated.
(§3) Compounds are administered by dietary admixture (powdered RM3 diet) for 14 days and blood glucose measured in samples taken from the tail vein of conscious non-fasted mice at appropriate intervals during the treatment period. After the 14 day treatment period, mice are killed by cervical dislocation and blood obtained from the severed jugular veins. Triglyceride and non-esterified fatty acids are measured in samples of serum obtained by centrifugation.

[2] = test system: C57 Bl/KsJ db/db mouse; test: Blood glucose in the C57 Bl/KsJ db/db mouse; type: in vivo; conditions: mean ± SD, n = 9-10; for Blood glucose, pre-dose: treated group before dosing (baseline)
Experimental: as §1, §2, §3

[3] = target: T1, human PPARα (Homo sapiens, UniProt Q07869); test: hPPARα agonist activity, transactivation reporter gene assay; type: cell-based; conditions: read-out: EC50 for activation of human PPARα
T1 construct: expressed in transfected cells
T1 sequence (Q07869 239-466 limits assumed): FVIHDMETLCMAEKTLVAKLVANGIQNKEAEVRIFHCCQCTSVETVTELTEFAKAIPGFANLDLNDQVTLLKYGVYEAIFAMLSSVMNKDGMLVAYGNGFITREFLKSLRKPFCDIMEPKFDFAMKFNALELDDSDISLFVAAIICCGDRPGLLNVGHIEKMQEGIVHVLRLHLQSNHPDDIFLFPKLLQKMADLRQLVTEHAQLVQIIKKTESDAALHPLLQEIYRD
Description: (§4) PPARα and γ agonist activity may be assessed by use of the methodology, or similar methodology, to that disclosed by Lehmann et al: Journal of Biological Chem., 270, 12953-12956 (1995).
In one aspect PPARα agonist compounds are those which stimulate a PPAR alpha chimeric receptor consisting of the PPAR alpha ligand binding site linked to a suitable reporter gene construct such as luciferase or chloramphenicol acetyltransferase (CAT). This activity can be identified by using the methods outlined by Lehmann et al., ibid.
(a) PPARα agonist activity by detecting stimulation of a PPAR alpha chimeric receptor consisting of the PPAR alpha ligand binding site linked to a suitable reporter gene construct; and
A suitable PPARα chimeric receptor comprises the amino acids of the ligand binding domain, for example amino acids 281-468, of the human PPARα, fused to amino acids 1-147 (DNA binding domain) of the gal 4 yeast transcription factor.
(§5) A suitable reporter gene construct is a luciferase or chloramphenicol acetyltransferase (CAT).
A suitable luciferase reporter gene construct contains gal 4 DNA binding elements in HEK-293 cells.
1) Determination of hPPARα and hPPAR-γ Agonist Activity
(§6) Compound agonist effects at human PPARα and PPARγ were assessed using a transactivation reporter gene assay, based on that described by Lehman et al. (1995) J Biol Chem 270, 12953-12956.

[4] = target: T2, human PPARγ (Homo sapiens, UniProt P37231); test: hPPARγ agonist activity, transactivation reporter gene assay; type: cell-based; conditions: read-out: EC50 for activation of human PPARγ
T2 construct: expressed in transfected cells
T2 sequence (P37231 173-476 isoform P37231-2): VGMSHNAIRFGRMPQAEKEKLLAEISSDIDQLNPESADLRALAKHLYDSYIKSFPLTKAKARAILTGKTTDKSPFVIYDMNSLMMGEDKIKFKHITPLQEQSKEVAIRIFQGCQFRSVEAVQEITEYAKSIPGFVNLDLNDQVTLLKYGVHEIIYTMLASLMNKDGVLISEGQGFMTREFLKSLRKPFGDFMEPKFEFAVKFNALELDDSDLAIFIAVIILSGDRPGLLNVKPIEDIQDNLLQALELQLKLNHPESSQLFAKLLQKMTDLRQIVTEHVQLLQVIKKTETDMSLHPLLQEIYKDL
Description: as §4
In one aspect PPARγ agonist compounds are those which stimulate a PPARγ chimeric receptor containing the PPAR gamma ligand binding site linked to a suitable reporter gene construct such as luciferase or chloramphenicol acetyltransferase (CAT). This activity can be identified by using the methods of Lehmann et al. J Biol. Chem., ibid.
(b) PPARγ agonist activity by detecting stimulation of a PPARγ chimeric receptor containing the PPAR gamma ligand binding site linked to a suitable reporter gene construct such as luciferase or chloramphenicol acetyltransferase (CAT).
A suitable PPARγ chimeric receptor comprises the amino acids of the ligand binding domain, for example amino acids 173-476, of the human PPARγ receptor fused to amino acids 1-147 (DNA binding domain) of the gal 4 yeast transcription factor.
as §5
A suitable luciferase reporter gene construct contains gal 4 DNA binding elements in HEK-293 cells. […]
as §6

EC50 [3]: 2500 nM
EC50 [4]: 70 nM
SMILES: CN(CCOc1ccc(C[C@H](OCC(F)(F)F)C(=O)O)cc1)c1nc2ccccc2o1 [(S)-3-[4-[2-[N-(2-benzoxazolyl)-N-methylamino]ethoxy]phenyl]-2-(2,2,2-trifluoroethoxy)propanoic acid]
Serum non-esterified fatty acids ([1]; control 2.58 ± 0.45): 1.28 ± 0.15 mmol/L
Serum triglycerides ([1]; control 3.78 ± 1.34): 2.58 ± 0.45 mmol/L
Blood glucose, post dose (13 days) ([2]; EXPT I, dietary admixture, 13 days, control 34.0 ± 7.9, *** p < 0.001): 11.0 ± 3.6 mmol/L
Blood glucose, pre-dose ([2]; EXPT I, control 15.5 ± 3.7): 15.6 ± 4.0 mmol/L
Blood glucose, Day 1 ([2]; EXPT II, dietary admixture, Day 1, control 17.2 ± 3.7): 14.1 ± 3.7 mmo/l
Blood glucose, Day 2 ([2]; EXPT II, dietary admixture, Day 2, control 19.9 ± 2.7, ** p < 0.01): 15.0 ± 3.4 mmo/l
Blood glucose, Day 3 ([2]; EXPT II, dietary admixture, Day 3, control 20.2 ± 3.9, *** p < 0.001): 12.2 ± 5.1 mmo/l
Blood glucose, Day 5 ([2]; EXPT II, dietary admixture, Day 5, control 21.2 ± 1.9, *** p < 0.001): 11.3 ± 3.6 mmo/l
Blood glucose, Day 7 ([2]; EXPT II, dietary admixture, Day 7, control 23.4 ± 2.0, *** p < 0.001): 11.7 ± 3.7 mmo/l
Blood glucose, pre-dose ([2]; EXPT II, control 16.5 ± 2.9): 16.2 ± 4.3 mmo/l
